The subject of data set [1] is scopolamine-induced cognitive dysfunction ICR mice. As to the kind of experiment: Morris water maze test, scopolamine-induced cognitive dysfunction. To be noted: MWM last day, test agent 15 mg/kg i.p. + scopolamine 15 mg/kg i.p., 15 days, n = 8, mean ± SEM.
Procedure: The MWM test was performed at the last 5 days including two days of memory and learning training, three days of cognitive assessment. On the fifth day, a probe training trial was performed and analysed. […] However, the dosage of scopolamine was increased from 5 mg/kg to 15 mg/kg to achieve a better modelling effect.
Cognitive and memory assays in vivo
The adult female ICR mice (8-10 weeks old, weight 20-25 g) were obtained from the
Zhejiang Academy of Medical Sciences (Hangzhou, China).
agents were prepared as clear injections, consisting of 10% DMSO, 20%
(2-hydroxypropyl)-β-cyclodextrin and PBS. The mice were trained to find the platform (10 cm
diameter) in the opaque circular pool (120 cm diameter, 60 cm height) filled with water (40 cm,
depth), which was described in detail in our previous study.[1] All mice received at least one
training session daily in four quadrants for four consecutive days before testing of finding the
The mice were randomly divided into four groups: (i) control group (PBS of 20%
were intraperitoneally injected with indicated compounds or solvent 30 min before intraperitoneal
injection with scopolamine or PBS once a day for 15 consecutive days. The Morris water maze
test was performed at the last 5 days.
In another data set the test system is PC12 cells. Briefly: Intracellular ROS detection (DCFH-DA), Aβ1–42-induced. The data set is classed as cell-based. To be noted: 8g and Aβ1–42 10 μM, flow cytometry. As for the experimental part:
Aβ deposition and peroxidation are also important clinical features of AD. Therefore, we subsequently assessed the antioxidation of compound 8g, using 2′,7′-dichlorofluorescin diacetate (DCFH-DA) to detect intracellular ROS generation on the PC12 cell line derived from neural pheochromocytoma. Based on our previous research, the concentration of 10 μM of compound 8g was chosen in this test. […]
8. Intracellular ROS detection

Data set [2] in a line: Iron-chelating activity test: affinity constants for Fe3+ and pFe3+.
A short description of the next data set: PAMPA-BBB assay. As to conditions: for Prediction of CNS penetrability: from Pe in PAMPA-BBB.
In a further data set the target is T1, MAO-B (Homo sapiens, UniProt P27338).
T1 sequence (P27338 1-520): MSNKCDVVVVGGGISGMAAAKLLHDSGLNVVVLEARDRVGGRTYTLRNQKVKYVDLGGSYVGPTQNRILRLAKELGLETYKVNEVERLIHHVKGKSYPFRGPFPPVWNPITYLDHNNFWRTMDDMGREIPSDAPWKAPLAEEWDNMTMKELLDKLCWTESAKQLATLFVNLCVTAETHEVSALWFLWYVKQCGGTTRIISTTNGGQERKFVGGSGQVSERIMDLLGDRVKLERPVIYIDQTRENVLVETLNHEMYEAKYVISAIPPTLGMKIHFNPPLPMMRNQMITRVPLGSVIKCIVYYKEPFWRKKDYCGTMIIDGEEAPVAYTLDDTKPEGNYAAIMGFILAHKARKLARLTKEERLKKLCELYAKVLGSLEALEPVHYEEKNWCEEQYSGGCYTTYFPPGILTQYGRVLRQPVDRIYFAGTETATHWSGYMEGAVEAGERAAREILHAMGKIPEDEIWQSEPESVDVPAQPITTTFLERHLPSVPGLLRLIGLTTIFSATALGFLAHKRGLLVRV
As to the kind of experiment: Human MAO-B inhibition assay. The data set is classed as biochemical.

Data set [3] is described as follows: pKa determination by spectrophotometric titration. As to conditions: 0.1 M KCl aqueous solution, pH range 2.0–10.5, 25 °C.
For another data set, the target named is T2, MAO-A (Homo sapiens, UniProt P21397).
T2 sequence (P21397 1-527): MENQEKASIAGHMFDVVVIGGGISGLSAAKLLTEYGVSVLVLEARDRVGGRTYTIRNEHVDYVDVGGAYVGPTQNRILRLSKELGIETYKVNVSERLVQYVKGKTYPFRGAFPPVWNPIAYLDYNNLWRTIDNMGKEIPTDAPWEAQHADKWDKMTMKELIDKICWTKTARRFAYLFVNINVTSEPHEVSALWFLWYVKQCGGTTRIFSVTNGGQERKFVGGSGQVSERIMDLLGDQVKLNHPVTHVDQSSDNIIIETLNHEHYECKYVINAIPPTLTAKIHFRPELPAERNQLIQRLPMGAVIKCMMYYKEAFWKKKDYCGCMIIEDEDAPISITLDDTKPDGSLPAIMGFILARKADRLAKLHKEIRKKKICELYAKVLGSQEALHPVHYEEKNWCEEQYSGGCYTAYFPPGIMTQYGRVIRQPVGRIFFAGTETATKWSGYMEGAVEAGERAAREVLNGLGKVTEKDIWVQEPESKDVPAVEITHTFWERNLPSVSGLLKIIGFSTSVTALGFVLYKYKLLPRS
As to the kind of experiment: Human MAO-A inhibitory assay. The format is biochemical. As to conditions: read-out: IC50 ± SEM MAO-A.

The next data set is described as follows: in vitro. To be noted: PAMPA.
For data set [4] the following is noted: literature value, footnote c; cited from earlier work.

A value given as a limit tells only on which side of the number the result lay.

The source of these data is PMC8510601, “Discovery of benzamide-hydroxypyridinone hybrids as potent multi-targeting agents for the treatment of Alzheimer's disease” (Journal of Enzyme Inhibition and Medicinal Chemistry, 2021).

For the compound `Cc1c(O)c(=O)ccn1CCNC(=O)c1ccc(OCc2ccccc2)cc1` [Compound 8g], the melting point is 246 to 248 °C. Further, in [1], the “Distance to the target” value is reported as 2.64 ± 0.52 m and the “Entries to the target” value amounted to 4.12 ± 0.40. In the data set on PC12 cells, the “ROS %Gated (percentage of positive cells in the total number of cells)” value was determined as 33.32% and the “ROS Mean (average fluorescence intensity of all cells)” value is reported as 106.35. In data set [2] (KCl (0.1 M): DMSO = 3:2 (v/v)), the “Log β2” value is given as 26.04 and the “Log β3” value came to 35.65. Moreover, the “Log β1” value in data set [2] (KCl (0.1 M): DMSO = 9:1 (v/v)) was determined as 14.60. For the same compound, the “pFe^3+” value in data set [2] (pH 7.4, [Fe3+]total = 10^−6 M, [ligand]total = 10^−5 M, calculated from pKa and log β measured in KCl/DMSO) was 19.31. In addition, in “PAMPA-BBB assay” (PAMPA), the Papp at 6 h, 25 μg/mL came out at 4.07 ± 0.44 ×10⁻⁶ cm/s. In addition, in “PAMPA-BBB assay”, the “Prediction of CNS penetrability” value is recorded as “CNS + (CNS +: Pe (10^–6 cm/s) > 4.0, high BBB permeability)”. Moreover, in “PAMPA-BBB assay” (porcine brain lipid, 6 h at 25 °C, eight independent experiments), the “Pe ± SEM” value is > 4.0 10^–6 cm/s. Moreover, the inhibition at 0.1 µM on MAO-B (100 nM, read-out: Inhibitory rate ± SEM (%, 100 nM)) was over 50%. Further, the inhibition at 1 µM at MAO-B (1 μM, read-out: Inhibitory rate ± SEM (%, 1 μM)) is 78.29 ± 0.16%. In addition, the “SI (selectivity index) = IC50 (MAO-A)/IC50 (MAO-B)” value on MAO-B (selectivity for the MAO-B isoform) amounted to 213. Further, the IC50 at MAO-B (± SEM, read-out: IC50 against MAO-B) turned out to be 0.0684 ± 0.00605 µM. Moreover, the pKa in [3] (KCl (0.1 M)) was 3.38. Moreover, the pKa in data set [3] (pKa2, KCl (0.1 M)) came out at 9.69. For the same compound, the concentration for half-maximal inhibition (IC50) on MAO-A was found to be 14.6 ± 0.231 µM.
In the data set “in vitro”, `CN1C(C(=O)Nc2ccccn2)=C(O)c2ccccc2S1(=O)=O` [Piroxicam] came in with an apparent permeability (Papp) of 2.05 ± 0.04 ×10⁻⁶ cm/s. Moreover, the “Prediction of CNS penetrability” value in the data set “PAMPA-BBB assay” is reported as “CNS ± (CNS ±: 2.0 < Pe (10^–6 cm/s) < 4.0, uncertain BBB permeability)”. For the same compound, the Pe in [4] is reported as 2.5^c 10^–6 cm/s.
